Patent US7361685B2, “Compounds for use in the treatment of skin conditions” (Oregon Health & Science University, priority 2001, dated 2008)
Values joined by “and” are separate entries in the source; they are usually repeats but may differ in a detail not shown here. Equal values may be shown once.

Tests used:
mouse melan-a cell line = test: Microplate culture and sulforhodamine B (SRB) proliferation assay, melan-a melanocytes; type: cell-based
Description: A supplemental growth medium of 10% foetal bovine serum (FBS) was added to the […] microtiter plates. The plates were incubated at 37° C. in a 10% CO2, 90% air humidified atmosphere for 4 days. At the end of the incubation, an SRB assay was performed. Briefly, cells attached to the bottom of the plate were fixed by addition of cold trichloroacetic acid (TCA, 4° C., Aldrich, Dorset, UK) on the top of the growth medium (final TCA 20% w/v). The plate was placed at 4° C. for 1 hour before being gently washed five times with tap water. It was allowed to dry in air, or aided with a hair dryer to speed up the drying process, then 50 μl of […] SRB dissolved in 1% acetic acid in water was added to each well for 30 min. At the end of the staining period, unbound SRB was removed by washing 4 times with 1% acetic acid. The plate was air dried again, and 150 μl of 10 mM aqueous Tris base (Sigma-Aldrich Co. Ltd, Irvine, UK) was added into each well to solubilize the cell-bound dye. […] A control assay was carried out on cells incubated without test compound. There were 2 or 3 series of experiments, each of which consisted of six replicate experiments.
Various compounds of formula (1) were synthesised and tested for melanocyte (mouse melan-a) proliferant activity in-vitro. Cells were incubated with the test compound for 4 days, as described above.
Percentage cell growth was obtained with a given compound calculated as (optical density in the presence of the compound/control optical density)×100.
Melan-a cell proliferant activity for tested compounds was compared with that obtained with piperine. […] All figures are given with Standard Error of the Mean.

melan-a cells = test: Dendricity of melan-a cells by observation under microscope; type: cell-based, mouse; set-up: key to Dendricity of RV-A08: +++: highly dendiitic; ++: moderately dendritic; +: weakly dendritic; key to Dentricity of RV-A07 / Dendricity of RV-A09 / Dendricity of RV-A10 / Dendricity: +++: highly dendritic; ++: moderately dendritic; +: weakly dendritic; −: no effect
Source text: Effect on dendricity of melan-a cells by the test compounds was by observation under microscope. Dendricity is relevant to vitiligo since normal skin melanocytes have dendrites, but in vitiligo the melanocytes seem to lose these before they disappear from the patches.

Molecule	Percentage cell growth (mouse melan-a cell line; 1 μM, 4 days, ± SEM)	Stimulant activity (mouse melan-a cell line; 10 μM)	Percentage cell growth (Repeated experiments) Test cpd. (mouse melan-a cell line; 10 μM test compound, 4 days, OD vs control x100, ± SEM)	Percentage cell growth (mouse melan-a cell line; 10 μM, 4 days, ± SEM)	Percentage cell growth (mouse melan-a cell line; 25 μM, 4 days, ± SEM) [%]	Percentage cell growth (mouse melan-a cell line; 50 μM, 4 days, ± SEM)	Percentage cell growth (mouse melan-a cell line; 100 μM, 4 days, ± SEM) [%]	Dendricity (melan-a cells; 1 μM (tables RV-C04, RV-C05))	Dendricity (melan-a cells; 10 μM (tables RV-C04, RV-C05))	Dendricity (melan-a cells; 50 μM (tables RV-C04, RV-C05))	Dendricity (melan-a cells; 100 μM (tables RV-C04, RV-C05))	Dendricity of RV-A09 (melan-a cells; 10 μM)	Dendricity of RV-A10 (melan-a cells; 10 μM)	Dendricity of RV-A10 (melan-a cells; 50 μM)	Dentricity of RV-A07 (melan-a cells; 10 μM)	Dendricity of RV-A08 (melan-a cells; 10 μM)	Percentage cell growth (Repeated experiments) Piperine (mouse melan-a cell line; 10 μM piperine run alongside the test compound, 4 days, ± SEM)
O=C(/C=C/C=C/c1ccc2c(c1)OCO2)N1CCOCC1 [RV-A02, 5-E,E-piperinoyl morpholine]	125 ± 10%	Positive	156 ± 58% and 187 ± 40% and 153 ± 19%	167 ± 17 %	171 ± 8	168 ± 12**□ %											
O=C(CCCCc1ccc2c(c1)OCO2)NC1CCCCC1 [RV-C04, 5-(3,4-methylenedioxyphenyl)-pentanoic acid cyclohexylamide]	129 ± 6 %			192 ± 6 %		192 ± 10 %	191 ± 12	+	+++	+++	+++						
CC(C)NC(=O)/C=C/C=C/c1ccc2c(c1)OCO2 [RV-A09, 5-E,E-piperinoylisopropylamine]	187 ± 15 %	Positive		224 ± 19 %		85 ± 5%	42 ± 6					+++					
O=C(/C=C/C=C/c1ccc2c(c1)OCO2)NC1CCCCC1 [RV-A10, 5-E,E-piperinoyl cyclohexylamine]	301 ± 20**□ %	Positive		308 ± 29 %		155 ± 22**□ %	100 ± 13						+++	++			
CNC(=O)/C=C/C=C/c1ccc2c(c1)OCO2 [RV-A07, 5-E,E-piperinoylmethylamine]	140 ± 12 %	Positive		170 ± 24 %		71 ± 5%	46 ± 2								++		
CCNC(=O)/C=C/C=C/c1ccc2c(c1)OCO2 [RV-A08]	139 ± 27 %	Positive		200 ± 14 %		81 ± 12%	62 ± 13									+++	
O=C(/C=C/C=C/c1ccc2c(c1)OCO2)N1CCCCC1 [Piperine, reference compound]	147 ± 11**♦ % and 211 ± 16**♦ % and 216 ± 14**♦ % and 221 ± 17**♦ % and 236 ± 30 % and 191 ± 12**♦ % and 161 ± 13 %			192 ± 13**♦ % and 216 ± 33 % and 236 ± 17 % and 263 ± 16 % and 302 ± 17 % and 216 ± 18 % and 192 ± 2**♦ %	167 ± 19												236 ± 17% and 263 + 16** % and 302 ± 17 % and 210 ± 65% and 170 ± 22% and 155 ± 19% and 216 ± 33 %
7-(3,4-methylenedioxy phenyl)-heptanoic acid piperidineamide [RV-C05]	118 ± 1%			160 ± 5**♦ %		158 ± 19 %	113 ± 15	+	++	++	+						
